Test results reported in patent publication US20060165827A1, “Anti diarrhoea compositions” (Loders Croklaan USA LLC, priority 2002, published 2006).

Assays:
[1] = tested on: growing piglets; assay: Growth, food intake and food conversion of weaned piglets on supplemented feed; format: in vivo, pig
Source text: (§1) Evaluate the effect of supplementation with shea sterols on growth and post-weaning diarrhoea of growing piglets.
(§2) One day before the start of the experiment the pigs are weighed. The piglets are distributed over the different treatment groups with the aim to establish group equality in weight, sex. Piglets smaller than 5 kg or piglets with physical disturbances are excluded from the study.
(§3) At a mean age of 27 days the pigs are weaned and randomly assigned to the 3 experimental groups and are then treated for 35 days. Pigs are fed ad libitum. The first 14 days post weaning the pigs are fed a prestarter diet. Subsequently, the piglets are changed in a period of 3 days to a starter diet. Throughout the 35 day study period the food is supplemented with either:
(§4) 1. without antimicrobial growth enhancers
(§5) 2. with antimicrobial growth enhancers (AMGB: 40 ppm avilamycine)
(§6) 3. with shea oleine (0.4%)
(§7) The shea oleine contained 8 wt % sterols and pentacyclic terpenes. The shea oleine was obtained by fractionation of the extract from shea nuts into a stearine and oleine fraction, followed by partial bleaching and deodorising.
Piglets were weighed at the start of the experiment, at 14 days and at day 34.

[2] = tested on: post-weaning diarrhoea of growing piglets; assay: Incidence of post-weaning diarrhoea in weaned piglets on supplemented feed; format: in vivo, pig
Source text: as §1, §2, §3, §4, §5, §6, §7

[3] = from weaning till 14 days post weaning
[4] = from weaning till 14 days post weaning, p < 0.001

In the case of avilamycine [AMGB], the EW-conversion ([1]; from day 1 till day 34) is reported as 1.64, the EW-intake per day ([1]; from day 1 till day 34) is reported as 0.57 and the food conversion ([1]; from day 1 till day 34) is reported as 1.49. It also gave a food intake ([1]; from day 1 till day 34) of 0.52 kg/day, a growth rate ([1]; from day 1 till day 34) of 352 g/day and a weight ([1]; from day 1 till day 34) of 20.9 kg. The EW-conversion ([1]; from day 15 till day 34) was 1.70, the EW-intake per day ([1]; from day 15 till day 34) was 0.79 and the food conversion ([1]; from day 15 till day 34) was 1.55. It also gave a food intake ([1]; from day 15 till day 34) of 0.72 kg/day, a growth rate ([1]; from day 15 till day 34) of 468 g/day and a weight ([1]; from day 15 till day 34) of 10.5 kg. It also gave an EW-conversion [1, 3] of 1.43, a food conversion [1, 3] of 1.28 and a growth rate [1, 3] of 185 g/day. It also gave an EW-intake per day [1, 4] of 0.26, a food intake [1, 4] of 0.23 kg/day and a weight at weaning ([1]; piglets, at weaning (start of experiment)) of 7.7 kg. For the same substance, the “Incidence of diarrhoea: no diarrhoea” value ([2]; First week post-weaning) was 81.2%, the “Incidence of diarrhoea: past (paste-like) diarrhoea” value (“Incidence of diarrhoea: past” below) ([2]; First week post-weaning) was 17.6% and the “Incidence of diarrhoea: watery diarrhoea” value ([2]; First week post-weaning) was 1.2%. For the same substance, the “Incidence of diarrhoea: past” value ([2]; Second week post-weaning) was 9.5%, the “Incidence of diarrhoea: watery diarrhoea” value ([2]; Second week post-weaning) was 0.2% and the “Incidence of diarrhoea: no diarrhoea” value ([2]; Second week post-weaning, p < 0.1) was 90.3%. The “Incidence of diarrhoea: past” value ([2]; Third week post-weaning) was 9.0%, the “Incidence of diarrhoea: watery diarrhoea” value ([2]; Third week post-weaning) was 0.5% and the “Incidence of diarrhoea: no diarrhoea” value ([2]; Third week post-weaning, p < 0.01) was 90.5%. The “number of animals required treatment” value ([2]; veterinary treatment during the study) was 23.
